The results in this text go back to ChEMBL document CHEMBL4190178 (Medchemcomm, 2016).

This assay has as its system LNCaP. The experiment in a line: Cytotoxicity against human LNCAP cells assessed as reduction in cell viability after 24 hrs by MTT assay. In kind it is functional, cell-based.
Usually EC50 stands for the concentration that produces a half-maximal response. With `COc1ccccc1N1CCN(C(=O)CN2CCN(c3ncccn3)CC2)CC1`, the EC50 was 48.2 µM.
As for `COc1ccccc1N1CCN(CC(=O)N2CCN(c3ncccn3)CC2)CC1`, the figure is 47.1 µM.
With `O=C(N1CCN(c2ccc([N+](=O)[O-])cc2)CC1)N1CCN(c2ccc([N+](=O)[O-])cc2)CC1` the figure was 72.3 µM; with `O=C(CCl)N1CCN(c2ncccn2)CC1`, 71.3 µM.
As to `O=C(N1CCN(c2ccc([N+](=O)[O-])c(C(F)(F)F)c2)CC1)N1CCN(c2ccccn2)CC1`, the EC50 is 79.8 µM.
For the compound `O=C(CN1CCN(c2ccccn2)CC1)N1CCN(c2ncccn2)CC1`, the EC50 worked out at 50 µM.
Consider `O=C(CN1CCN(c2ncccn2)CC1)N1CCN(c2ccc([N+](=O)[O-])cc2)CC1`, for which the EC50 was found to be 51.7 µM.
On to `COc1ccccc1N1CCN(C(=O)CN2CCN(c3ccc([N+](=O)[O-])cc3)CC2)CC1`, for which the EC50 was found to be 63.1 µM.
With `O=C(CN1CCN(c2ccc([N+](=O)[O-])cc2C(F)(F)F)CC1)N1CCN(c2ccc([N+](=O)[O-])cc2C(F)(F)F)CC1` the figure was 46.6 µM; with `O=C(CN1CCN(c2ccc(C(F)(F)F)cc2[N+](=O)[O-])CC1)N1CCN(c2ccc(C(F)(F)F)cc2[N+](=O)[O-])CC1`, 48.2 µM; with `O=C(CN1CCN(c2ncccn2)CC1)N1CCN(c2ncccn2)CC1`, 48.2 µM.
As for `O=C(CN1CCN(c2ccc([N+](=O)[O-])cc2)CC1)N1CCN(c2ncccn2)CC1`, the figure is 67.9 µM; as for `O=C(N1CCN(c2ccccn2)CC1)N1CCN(c2ccccn2)CC1`, > 80 µM; as for `COc1ccccc1N1CCN(C(=O)CN2CCN(c3ccccn3)CC2)CC1`, 45.9 µM.
In the case of `O=C(CCl)N1CCN(c2ccc(C(F)(F)F)cc2[N+](=O)[O-])CC1`, the EC50 stood at 41.1 µM.
Turning to `O=C(CN1CCN(c2ccccn2)CC1)N1CCN(c2ccc([N+](=O)[O-])cc2)CC1`, the EC50 worked out at 55.2 µM.
For the compound `O=C(N1CCN(c2ccccn2)CC1)N1CCN(c2ccc([N+](=O)[O-])cc2C(F)(F)F)CC1`, the EC50 was > 80 µM.
With `O=C(N1CCN(c2ccc([N+](=O)[O-])cc2)CC1)N1CCN(c2ccc(C(F)(F)F)cc2[N+](=O)[O-])CC1` the figure was > 80 µM.
With `O=C(CCl)N1CCN(c2ccc([N+](=O)[O-])cc2C(F)(F)F)CC1`, the EC50 was determined as 53.3 µM.
With `O=C(N1CCN(c2ccc([N+](=O)[O-])cc2)CC1)N1CCN(c2ccccn2)CC1` the figure was 69.5 µM.
As for `O=C(N1CCN(c2ccc([N+](=O)[O-])cc2)CC1)N1CCN(c2ccc([N+](=O)[O-])cc2C(F)(F)F)CC1`, the figure is 76.1 µM; as for `COc1ccccc1N1CCN(CC(=O)N2CCN(c3ccccc3OC)CC2)CC1`, 52.2 µM.
